pIC50: −log10 of the molar value.
Target: human mOR (Homo sapiens (Human), UniProt P35372)
Assay: cell-based
Conditions: not given

Sequence of human mOR (P35372 whole entry): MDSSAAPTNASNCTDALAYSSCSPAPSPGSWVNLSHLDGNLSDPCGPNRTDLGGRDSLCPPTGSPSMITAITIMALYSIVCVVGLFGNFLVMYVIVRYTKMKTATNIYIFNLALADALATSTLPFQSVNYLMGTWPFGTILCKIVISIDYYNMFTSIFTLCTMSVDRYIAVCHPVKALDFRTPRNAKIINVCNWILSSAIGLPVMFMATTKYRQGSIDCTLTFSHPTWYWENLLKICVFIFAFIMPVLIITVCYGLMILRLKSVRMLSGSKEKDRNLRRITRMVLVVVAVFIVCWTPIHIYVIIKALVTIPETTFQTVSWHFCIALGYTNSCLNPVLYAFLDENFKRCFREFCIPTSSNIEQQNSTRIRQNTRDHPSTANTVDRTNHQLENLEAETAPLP

| Structure (SMILES) | pIC50 |
| --- | --- |
| Cc1cc(O)cc(C)c1C[C@@H](CNC(=O)C[C@H](CC1CC1)c1cccnc1)N(C)C [Compound 241, (S)-4-cyclopropyl-N-((S)-2-(dimethylamino)-3-(4-hydroxy-2,6-dimethylphenyl)propyl)-3-(pyridin-3-yl)butanamide] | > 6.52 |
| Cc1cc(O)cc(C)c1C[C@@H](CNC(=O)C[C@H](c1cccnc1)C1(C(F)(F)F)CC1)N(C)C [Compound 242, (R)-N-((S)-2-(dimethylamino)-3-(4-hydroxy-2,6-dimethylphenyl)propyl)-3-(pyridin-3-yl)-3-(1-(trifluoromethyl)cyclopropyl)propanamide] | > 6.52 |
| Cc1cc(O)cc(C)c1C[C@@H](CNC(=O)C[C@@H](c1cccnc1)C1(C(F)(F)F)CC1)N(C)C [Compound 243, (S)-N-((S)-2-(dimethylamino)-3-(4-hydroxy-2,6-dimethylphenyl)propyl)-3-(pyridin-3-yl)-3-(1-(trifluoromethyl)cyclopropyl)propanamide] | > 6.52 |
| COc1ccc(C(CC(=O)NC[C@H](Cc2c(C)cc(O)cc2C)N(C)C)C2(C(F)(F)F)CC2)cn1 (stereo partly drawn) [Compound 244, N-((S)-2-(dimethylamino)-3-(4-hydroxy-2,6-dimethylphenyl)propyl)-3-(6-methoxypyridin-3-yl)-3-(1-(trifluoromethyl)cyclopropyl) propanamide] | > 6.52 |
| Cc1cc(O)cc(C)c1C[C@@H](CNC(=O)C[C@H](c1cncc(Cl)c1)C1(C(F)(F)F)CC1)N(C)C [Compound 245, (R)-3-(5-chloropyridin-3-yl)-N-((S)-2-(dimethylamino)-3-(4-hydroxy-2,6-dimethylphenyl)propyl)-3-(1-(trifluoromethyl)cyclopropyl)propanamide] | > 6.52 |
| Cc1cc(O)cc(C)c1C[C@@H](CNC(=O)CC(c1ncc(Cl)cn1)C1(C(F)(F)F)CC1)N(C)C (stereo partly drawn) [Compound 246, 3-(5-chloropyrimidin-2-yl)-N-((S)-2-(dimethylamino)-3-(4-hydroxy-2,6-dimethylphenyl)propyl)-3-(1-(trifluoromethyl)cyclopropyl)propanamide] | > 6.52 |
| Cc1cc(O)cc(C)c1C[C@@H](CNC(=O)CC(c1cncc(F)c1)C1(C(F)(F)F)CC1)N(C)C (stereo partly drawn) [Compound 247, N-((S)-2-(dimethylamino)-3-(4-hydroxy-2,6-dimethylphenyl)propyl)-3-(5-fluoropyridin-3-yl)-3-(1-(trifluoromethyl)cyclopropyl)propanamide] | > 6.52 |
| Cc1cc(O)cc(C)c1C[C@@H](CNC(=O)CC(c1ccc(C(F)(F)F)nc1)C1(C(F)(F)F)CC1)N(C)C (stereo partly drawn) [Compound 249, N-((S)-2-(dimethylamino)-3-(4-hydroxy-2,6-dimethylphenyl)propyl)-3-(1-(trifluoromethyl)cyclopropyl)-3-(6-(trifluoromethyl)pyridin-3-yl)propanamide] | > 6.52 |
| CC[C@H](CC(=O)NC[C@H](Cc1c(C)cc(O)cc1C)N(C)C)c1cnc(C)s1 [Compound 252, (R)-N-((S)-2-(dimethylamino)-3-(4-hydroxy-2,6-dimethylphenyl)propyl)-3-(2-methylthiazol-5-yl)pentanamide] | > 6.52 |
| Cc1ncc([C@@H](CC(=O)NC[C@H](Cc2c(C)cc(O)cc2C)N(C)C)C2CC2)s1 [Compound 253, (S)-3-cyclopropyl-N-((S)-2-(dimethylamino)-3-(4-hydroxy-2,6-dimethylphenyl)propyl)-3-(2-methylthiazol-5-yl)propanamide] | > 6.52 |
| Cc1ncc(C(CC(=O)NC[C@H](Cc2c(C)cc(O)cc2C)N(C)C)C2CC2)s1 (stereo partly drawn) [Compound 254, (S)-3-cyclopropyl-N-((S)-2-(dimethylamino)-3-(4-hydroxy-2,6-dimethylphenyl)propyl)-3-(2-methylthiazol-5-yl)propanamide] | > 6.52 |
| CN(C)[C@H](CNC(=O)C[C@H](c1cccnc1)C1(C)CC1)Cc1ccc(O)cc1C(F)(F)F [Compound 256, (S)-N-((S)-2-(dimethylamino)-3-(4-hydroxy-2-(trifluoromethyl)phenyl)propyl)-3-(1-methylcyclopropyl)-3-(pyridin-3-yl)propanamide] | > 6.52 |
| CN(C)[C@H](CNC(=O)C[C@H](c1cccnc1)C1(C(F)(F)F)CC1)Cc1ccc(O)c(F)c1Cl [Compound 257, (R)-N-((S)-3-(2-chloro-3-fluoro-4-hydroxyphenyl)-2-(dimethylamino)propyl)-3-(pyridin-3-yl)-3-(1-(trifluoromethyl)cyclopropyl)propanamide] | > 6.52 |
| CN(C)[C@H](CNC(=O)C[C@H](c1ccncc1)C1CC1)Cc1ccc(O)c(F)c1Cl [Compound 258, (S)-N-((S)-3-(2-chloro-3-fluoro-4-hydroxyphenyl)-2-(dimethylamino)propyl)-3-cyclopropyl-3-(pyridin-4-yl)propanamide] | > 6.52 |
| COc1ccc(C[C@@H](CNC(=O)C[C@H](c2cccnc2)C2(C(F)(F)F)CC2)N(C)C)c(Cl)c1F [Compound 259, (R)-N-((S)-3-(2-chloro-3-fluoro-4-methoxyphenyl)-2-(dimethylamino)propyl)-3-(pyridin-3-yl)-3-(1-(trifluoromethyl)cyclopropyl)propanamide] | < 5.52 |
| CN(C)[C@H](CNC(=O)C[C@H](CC1CC1)c1ccncc1)Cc1ccc(O)cc1Cl [Compound 260, (S)-N-((S)-3-(2-chloro-4-hydroxyphenyl)-2-(dimethylamino)propyl)-4-cyclopropyl-3-(pyridin-4-yl)butanamide] | > 6.52 |
| CN(C)[C@H](CNC(=O)C[C@H](c1ccncc1)C1(C(F)(F)F)CC1)Cc1ccc(O)cc1Cl [Compound 261, (R)-N-((S)-3-(2-chloro-4-hydroxyphenyl)-2-(dimethylamino)propyl)-3-(pyridin-4-yl)-3-(1-(trifluoromethyl)cyclopropyl)propanamide] | > 6.52 |
| CN(C)[C@H](CNC(=O)C[C@H](c1cccnc1)C1(C(F)(F)F)CC1)Cc1ccc(O)cc1Cl [Compound 262, (R)-N-((S)-3-(2-chloro-4-hydroxyphenyl)-2-(dimethylamino)propyl)-3-(pyridin-3-yl)-3-(1-(trifluoromethyl)cyclopropyl)propanamide] | > 6.52 |
| Cc1cc(O)ccc1C[C@@H](CNC(=O)C[C@H](c1cncs1)C1CC1)N(C)C [Compound 264, (S)-3-cyclopropyl-N-((S)-2-(dimethylamino)-3-(4-hydroxy-2-methylphenyl)propyl)-3-(thiazol-5-yl)propanamide] | > 6.52 |
| Cc1cc(O)ccc1C[C@@H](CNC(=O)C[C@H](c1ccoc1)C1(C(F)(F)F)CC1)N(C)C [Compound 265, (R)-N-((S)-2-(dimethylamino)-3-(4-hydroxy-2-methylphenyl)propyl)-3-(furan-3-yl)-3-(1-(trifluoromethyl)cyclopropyl)propanamide] | > 6.52 |
| Cc1ccc([C@@H](CC(=O)NC[C@H](Cc2ccc(O)cc2C)N(C)C)C2(C(F)(F)F)CC2)o1 [Compound 266, (S)-N-((S)-2-(dimethylamino)-3-(4-hydroxy-2-methylphenyl)propyl)-3-(5-methylfuran-2-yl)-3-(1-(trifluoromethyl)cyclopropyl) propanamide] | > 6.52 |
| Cc1cc(O)ccc1C[C@@H](CNC(=O)C[C@H](c1cncs1)C1(C(F)(F)F)CC1)N(C)C [Compound 268, (S)-N-((S)-2-(dimethylamino)-3-(4-hydroxy-2-methylphenyl)propyl)-3-(thiazol-5-yl)-3-(1-(trifluoromethyl)cyclopropyl)propanamide] | > 6.52 |
| Cc1cc(O)ccc1C[C@@H](CNC(=O)C[C@H](c1cccnc1)C1(C(F)(F)F)CC1)N(C)C [Compound 269, (R)-N-((S)-2-(dimethylamino)-3-(4-hydroxy-2-methylphenyl)propyl)-3-(pyridin-3-yl)-3-(1-(trifluoromethyl)cyclopropyl)propanamide] | > 6.52 |
| Cc1cc(O)ccc1C[C@@H](CNC(=O)CC(c1ccncc1)C1(C(F)(F)F)CC1)N(C)C (stereo partly drawn) [Compound 270, N-((S)-2-(dimethylamino)-3-(4-hydroxy-2-methylphenyl)propyl)-3-(pyridin-4-yl)-3-(1-(trifluoromethyl)cyclopropyl)propanamide] | > 6.52 |
| Cc1cc(O)ccc1C[C@@H](CNC(=O)CC(c1ncccn1)C1(C(F)(F)F)CC1)N(C)C (stereo partly drawn) [Compound 271, N-((S)-2-(dimethylamino)-3-(4-hydroxy-2-methylphenyl)propyl)-3-(pyrimidin-2-yl)-3-(1-(trifluoromethyl)cyclopropyl)propanamide] | > 6.52 |
| Cc1cc(O)ccc1C[C@@H](CNC(=O)CC(c1cccnc1)C1(C(F)(F)F)CC1)N(C)C (stereo partly drawn) [Compound 272, N-((S)-2-(dimethylamino)-3-(4-hydroxy-2-methylphenyl)propyl)-3-(pyridin-3-yl)-3-(1-(trifluoromethyl)cyclopropyl)propanamide] | > 6.52 |
| Cc1cc(O)ccc1C[C@@H](CNC(=O)CC(c1ncc(Cl)cn1)C1(C(F)(F)F)CC1)N(C)C (stereo partly drawn) [Compound 274, 3-(5-chloropyridmidin-2-yl)-N-((S)-2-(dimethylamino)-3-(4-hydroxy-2-methylphenyl)propyl)-3-(1-(trifluoromethyl)cyclopropyl) propanamide] | > 6.52 |
| CC(C)[C@H](CC(=O)NC[C@H](Cc1ccc(O)c(Cl)c1)N(C)C)c1cccnc1 [Compound 276, (S)-N-((S)-3-(3-chloro-4-hydroxyphenyl)-2-(dimethylamino)propyl)-4-methyl-3-(pyridin-3-yl)pentanamide] | > 6.52 |
| CN(C)[C@H](CNC(=O)C[C@H](c1ccncc1)C1CC1)Cc1ccc(O)c(Cl)c1 [Compound 277, (S)-N-((S)-3-(3-chloro-4-hydroxyphenyl)-2-(dimethylamino)propyl)-3-cyclopropyl-3-(pyridin-4-yl)propanamide] | > 6.52 |

Same assay, conditions: CHO Tag-lite human mOR stable cell line; forskolin 4 μM and DAMGO at EC90; read-out: mOR cAMP Antagonist Assay IC50

| Structure (SMILES) | pIC50 |
| --- | --- |
| Cc1cc(O)cc(C)c1C[C@@H](CNC(=O)C1CC1c1ncccn1)N(C)C (stereo partly drawn) [Compound 248, N-((S)-2-(dimethylamino)-3-(4-hydroxy-2,6-dimethylphenyl)propyl)-2-(pyrimidin-2-yl)cyclopropane-1-carboxamide] | 5.52 to 6.52 |
| Cc1cc(O)cc(C)c1C[C@@H](CNC(=O)C[C@H](C)c1ccc(Cl)cc1)N(C)C [Compound 250, (S)-3-(4-chlorophenyl)-N-((S)-2-(dimethylamino)-3-(4-hydroxy-2,6-dimethylphenyl)propyl)butanamide] | 5.52 to 6.52 |

— patent publication US11634396B2 (priority 2021, dated 2023)
